The values that follow come from patent US12569430B2 (priority 2021, dated 2026).

In brackets after ≈: the same amount, converted by molar mass. Where a name gives a salt, the structure may show the parent alone. Read-outs that look alike come from different tables or passages of the source.

The conditions of data set [1]: cited from earlier work.
A short description of data set [2]: Toxicokinetics after subcutaneous implant. The settings on record: single subcutaneous implant, 1 g NTX (Group 2) vs 1 g NTX with 10 mg TCA (Group 3). The format is in vivo, Yucatan minipigs.
The nature of data set [3]: Saturation solubility of naltrexone in different media. The format is physicochemical. The note with it: thermodynamic from solid, read-out: Solubility of API.
Data set [4] in a line: In vitro dissolution of pellets, USP dissolution apparatus II (paddle). The note with it: for Release Triamcinolone, %: n = 1.
Procedure: The parameters used in the dissolution study are given below.
A USP dissolution apparatus II (paddle) (Agilent Technologies, Inc., Santa Clara, CA) was used for dissolution method parameters selection. For accelerated dissolution method development multiple parameters were evaluated: • 1). temperature of the dissolution media; • 2). initial wetting of the pellet (by adding detergent and organic solvent); • 3). the mixing speed; and • 4). the pH of the dissolution media used.
Water was used as the starting media. A sampling timepoint (at 66 or 90 hours) was used for initial dissolution parameter assessment.
The dissolution tests were performed in “sink” conditions where the amount of solvent was at least 3 times higher than the minimum amount of solvent required for dissolution.
Therefore, for the next step of the dissolution method development, 20% of ethanol was added to the dissolution media with a phosphate buffer.
Samples were taken at 8, 24, 48, 72 and 84 hours.

As for `O=C1CC[C@@]2(O)[C@H]3Cc4ccc(O)c5c4[C@@]2(CCN3CC2CC2)[C@H]1O5` [naltrexone hydrochloride], the “solubility in EtOH” value in data set [1] is less than 1000 µg/mL.

Regarding `O=C1CC[C@@]2(O)[C@H]3Cc4ccc(O)c5c4[C@@]2(CCN3CC2CC2)[C@H]1O5` [naltrexone, (4R,4aS,7aR,12bS)-3-(cyclopropylmethyl)-4a,9-dihydroxy-2,4,5,6,7a,13-hexahydro-1H-4,12-methanobenzofuro[3,2-e]isoquinolin-7-one], the “Systemic exposure to NTX (Cmax and AUC)” value in data set [2] is reported as “did not appear to be impacted”. Moreover, the solubility in data set [3] (pH 5, aqueous buffer, Hanks' Balanced Salt solution pH5.0) is 770 µg/mL; in data set [3] (pH 5, aqueous buffer, PBS pH5.0 (1:5)), 5210 µg/mL (≈ 15.3 mM); in data set [3] (pH 5.5, aqueous buffer, PBS pH5.5 (1:5)) it was 3120 µg/mL (≈ 9.14 mM); in data set [3] (pH 5.5, aqueous with cosolvent or surfactant or cyclodextrin, 20% EtOH + 80% PBS pH5.5 (1:10)), 5730 µg/mL; in data set [3] (pH 6, aqueous buffer, PBS pH6.0 (1:5)), 2910 µg/mL (≈ 8.52 mM); in data set [3] (pH 7.4, aqueous buffer, Hanks' Balanced Salt solution pH7.4), 670 µg/mL. For the same compound, the solubility in data set [3] (pH 7.4, aqueous buffer, PBS pH7.4) was determined as 960 µg/mL (≈ 2.81 mM); in data set [3] (pH 8, aqueous buffer, Hanks' Balanced Salt solution pH8.0), 650 µg/mL; in data set [3] (pH 8, aqueous buffer, PBS pH8.0), 750 µg/mL (≈ 2.2 mM).

As to `CC1(C)O[C@@H]2C[C@H]3[C@@H]4CCC5=CC(=O)C=C[C@]5(C)[C@@]4(F)[C@@H](O)C[C@]3(C)[C@]2(C(=O)CO)O1` [triamcinolone acetonide (TCA), triamcinolone acetonide], the “Release of triamcinolone acetonide (TCA) from pellets” value (“Release of triamcinolone acetonide” below) came out at 24.63% in data set [4] (10 mM Acetate buffer pH 3.8, 50 RPM at 37° C., 8 hrs); 62.64% in data set [4] (10 mM Acetate buffer pH 3.8, 50 RPM at 37° C., 24 hrs); 79.58% in data set [4] (10 mM Acetate buffer pH 3.8, 50 RPM at 37° C., 48 hrs); 79.36% in data set [4] (10 mM Acetate buffer pH 3.8, 50 RPM at 37° C., 72 hrs); 17.27% in data set [4] (10 mM Acetate buffer pH 5.0, 50 RPM at 37° C., 8 hrs); 46.65% in data set [4] (10 mM Acetate buffer pH 5.0, 50 RPM at 37° C., 24 hrs). Further, the “Release of triamcinolone acetonide” value worked out at 69.50% in data set [4] (10 mM Acetate buffer pH 5.0, 50 RPM at 37° C., 48 hrs); 78.13% in data set [4] (10 mM Acetate buffer pH 5.0, 50 RPM at 37° C., 72 hrs); 4.93% in data set [4] (10 mM Acetate buffer pH 5.8, 50 RPM, 8 hrs); 15.62% in data set [4] (10 mM Acetate buffer pH 5.8, 50 RPM, 24 hrs); 23.89% in data set [4] (10 mM Acetate buffer pH 5.8, 50 RPM, 48 hrs); 29.78% in data set [4] (10 mM Acetate buffer pH 5.8, 50 RPM, 72 hrs). Also, the “Release of triamcinolone acetonide” value in data set [4] (10 mM phosphate buffer pH 5.0, 50 RPM at 37° C., 8 hrs) came to 15.30%; in data set [4] (10 mM phosphate buffer pH 5.0, 50 RPM at 37° C., 24 hrs), 47.19%; in data set [4] (10 mM phosphate buffer pH 5.0, 50 RPM at 37° C., 48 hrs) it was 75.78%; in data set [4] (10 mM phosphate buffer pH 5.0, 50 RPM at 37° C., 72 hrs), 81.56%; in data set [4] (10 mM phosphate buffer pH 6.0, 50 RPM at 37° C., 8 hrs), 12.51%; in data set [4] (10 mM phosphate buffer pH 6.0, 50 RPM at 37° C., 24 hrs), 41.72%. Besides, the “Release of triamcinolone acetonide” value in data set [4] (10 mM phosphate buffer pH 6.0, 50 RPM at 37° C., 48 hrs) is 74.31%; in data set [4] (10 mM phosphate buffer pH 6.0, 50 RPM at 37° C., 72 hrs) it was 80.00%; in data set [4] (10 mM phosphate buffer pH 7.4, 150 RPM at 37° C., 8 hrs), 16.66%; in data set [4] (10 mM phosphate buffer pH 7.4, 150 RPM at 37° C., 24 hrs), 39.78%; in data set [4] (10 mM phosphate buffer pH 7.4, 150 RPM at 37° C., 48 hrs), 52.83%; in data set [4] (10 mM phosphate buffer pH 7.4, 150 RPM at 37° C., 72 hrs), 59.58%. Also, the “Release of triamcinolone acetonide” value in data set [4] (10 mM phosphate buffer/20% EtOH pH 6.0, 50/75 RPM at 37° C., 8 hrs) stood at 33.18%; in data set [4] (10 mM phosphate buffer/20% EtOH pH 6.0, 50/75 RPM at 37° C., 24 hrs), 87.99%; in data set [4] (10 mM phosphate buffer/20% EtOH pH 6.0, 50/75 RPM at 37° C., 48 hrs) it was 109.67%; in data set [4] (10 mM phosphate buffer/20% EtOH pH 6.0, 50/75 RPM at 37° C., 72 hrs) it was 109.28%; in data set [4] (10 mM phosphate buffer/20% EtOH pH 6.5, 50/75 RPM at 37° C., 8 hrs) it was 28.58%; in data set [4] (10 mM phosphate buffer/20% EtOH pH 6.5, 50/75 RPM at 37° C., 24 hrs) it was 76.69%. The “Release of triamcinolone acetonide” value worked out at 104.85% in data set [4] (10 mM phosphate buffer/20% EtOH pH 6.5, 50/75 RPM at 37° C., 48 hrs); 104.64% in data set [4] (10 mM phosphate buffer/20% EtOH pH 6.5, 50/75 RPM at 37° C., 72 hrs); 23.48% in data set [4] (10 mM phosphate buffer/20% EtOH pH 7.4, 50/75 RPM at 37° C., 8 hrs); 64.52% in data set [4] (10 mM phosphate buffer/20% EtOH pH 7.4, 50/75 RPM at 37° C., 24 hrs); 98.10% in data set [4] (10 mM phosphate buffer/20% EtOH pH 7.4, 50/75 RPM at 37° C., 48 hrs); 107.29% in data set [4] (10 mM phosphate buffer/20% EtOH pH 7.4, 50/75 RPM at 37° C., 72 hrs). In addition, the “Release Triamcinolone, %” value is recorded as 33.12% in data set [4] (10 mM PBS pH 7.4, 50 RPM, 37° C., 66 hrs); 83.52% in data set [4] (20 mM Acetate Buffer pH 3.8, 50 RPM, 37° C., 66 hrs); 85.59% in data set [4] (0.05N HCl, pH 1, 50 RPM, 37° C., 66 hrs); 39.09% in data set [4] (0.1% SLS in Water, 50 RPM, 37° C., 66 hrs); 61.77% in data set [4] (20% EtOH, 80% Water, 50 RPM, 37° C., 90 hrs); 31.50% in data set [4] (Water, 50 RPM, 37° C., 90 hrs). The “Release Triamcinolone, %” value is 38.63% in data set [4] (Water, 60 RPM, 60° C., 66 hrs) and 33.47% in data set [4] (Water, 150 RPM, 37° C., 66 hrs).

A word on the solubility: it is the concentration that dissolves in the medium under given conditions.
